Reference: patent US7662812B2, “Diazabicyclic aryl derivatives and their use as chinolinergic ligands at nicotinic acetylcholine receptors” (Neurosearch A/S, priority 2005, dated 2010)

Biological target: T1, α7-subtype of nicotinic receptors (Rattus norvegicus, UniProt Q05941)
T1 construct: Cerebral cortices from male Wistar rats (150-250 g) are homogenised; from tissue; host or cells: rat cerebral cortex membrane homogenate
Experiment: In vitro inhibition of 3H-α-bungarotoxine binding in rat brain
Details: rat cerebral cortex homogenate, 3H-α-bungarotoxine 2 nM, 2 hours at 37° C.

T1 sequence (Q05941 23-502): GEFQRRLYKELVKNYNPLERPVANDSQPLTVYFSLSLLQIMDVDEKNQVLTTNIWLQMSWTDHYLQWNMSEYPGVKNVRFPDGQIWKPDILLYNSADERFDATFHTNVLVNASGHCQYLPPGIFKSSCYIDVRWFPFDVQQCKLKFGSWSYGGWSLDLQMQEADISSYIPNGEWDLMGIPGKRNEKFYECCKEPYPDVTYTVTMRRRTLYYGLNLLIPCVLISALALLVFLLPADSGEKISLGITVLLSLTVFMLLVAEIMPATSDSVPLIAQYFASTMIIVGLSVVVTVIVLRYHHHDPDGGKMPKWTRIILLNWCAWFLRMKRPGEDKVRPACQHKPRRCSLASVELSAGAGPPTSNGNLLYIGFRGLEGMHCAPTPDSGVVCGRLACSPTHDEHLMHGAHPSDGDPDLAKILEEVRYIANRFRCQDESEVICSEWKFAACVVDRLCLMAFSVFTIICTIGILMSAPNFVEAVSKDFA

CN1C2CCC1CN(c1ccc(C#Cc3ccccc3)nn1)C2 [Compound B1, 8-Methyl-3-(6-phenylethynyl-pyridazin-3-yl)-3,8-diaza-bicyclo[3.2.1]octane]
IC50: 470 nM
